Experimental data from patent publication US4550107A, “Condensed diazepinones, their compositions and methods of use as pharmaceuticals” (Dr. Karl Thomae GmbH, priority 1984, dated 1985).
Values joined by “and” are separate entries in the source; they are usually repeats but may differ in a detail not shown here. Equal entries are not always repeated.

Key:
[1] = molecular target: T1, muscarinic receptors (heart) (Rattus norvegicus, UniProt P10980); assay: Receptor binding tests: inhibition of specific 3H-N-methylscopolamine binding, whole heart; set-up: species or system Sprague-Dawley rats; conditions: whole heart homogenate 1:250; 0.3 nM 3H-NMS; 30° C., 45 min, pH 7.4
T1 construct: The whole heart is cut up with scissors; All the organs are then homogenised in a Potter apparatus; from tissue; host or cells: rat whole heart, homogenised (1:250)
T1 sequence (P10980 1-466): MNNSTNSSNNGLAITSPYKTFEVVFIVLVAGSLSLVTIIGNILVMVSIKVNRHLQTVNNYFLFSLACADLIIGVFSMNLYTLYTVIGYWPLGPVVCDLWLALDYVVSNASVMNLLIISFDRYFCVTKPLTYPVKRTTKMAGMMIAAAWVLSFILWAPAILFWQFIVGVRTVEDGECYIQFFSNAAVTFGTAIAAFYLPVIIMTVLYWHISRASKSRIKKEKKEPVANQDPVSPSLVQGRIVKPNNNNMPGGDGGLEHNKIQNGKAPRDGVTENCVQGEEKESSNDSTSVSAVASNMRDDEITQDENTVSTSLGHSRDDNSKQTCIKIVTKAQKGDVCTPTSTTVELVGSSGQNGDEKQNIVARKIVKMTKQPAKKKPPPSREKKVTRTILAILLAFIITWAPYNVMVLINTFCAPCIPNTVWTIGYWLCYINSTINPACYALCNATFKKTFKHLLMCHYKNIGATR
Description: (§1) B. Studies of binding to muscarinic receptors: determining the IC50 value
(§2) The organ donors are Sprague-Dawley rats weighing from 180-220 g. After the removal of the heart, stomach and cerebral cortex, all the other steps are carried out in ice-cold Hepes-HCl buffer (pH 7.4; 100 m molar NaCl, 10 m molar MgCl2). The whole heart is cut up with scissors. All the organs are then homogenised in a Potter apparatus. For the bonding test, the homogenised organs are diluted as follows:
(§3) The homogenised organs are incubated at a specific concentration of the radioligand and with a series of concentrations of the non-radioactive test substances in an Eppendorf centrifugal test tube at 30° C. Incubation lasts 45 minutes. The radioligand is 0.3 n molar ^3 H-N-methylscopolamine (^3 H-NMS). After incubation has been ended by centrifuging at 14,000 g, the radioactivity in the pellet is determined. It represents the sum of specific and non-specific binding of ^3 H-NMS. The proportion of non-specific binding is defined as the radioactivity which binds in the presence of 1 μmolar quinuclidinyl benzylate. Four measurements are made in each case. The IC50 values of the non-labeled test substances are determined graphically. They represent the concentration of test substance at which the specific binding of ^3 H-NMS to the muscarinic receptors in the various organs is inhibited by 50%.

[2] = molecular target: muscarinic receptors (cerebral cortex); assay: Receptor binding tests: inhibition of specific 3H-N-methylscopolamine binding, cerebral cortex; set-up: species or system Sprague-Dawley rats; conditions: cerebral cortex homogenate 1:3000; 0.3 nM 3H-NMS; 30° C., 45 min, pH 7.4
Description: as §1, §2, §3

[3] = Stability of separated diastereoisomers (reversion into the original mixture); format: physicochemical; conditions: for stability in crystalline form: temperature below the melting point
Source text: The base-substituted condensed diazepinones of formula I according to the invention contain up to two independent chiral elements, including an asymmetric carbon atom in the side chain. The second chiral element is the acylated tricyclic moiety itself, which can occur in two mirror-image forms. The nature of the tricyclic compound determines whether the energy barrier for inversion at this center is so high that the individual isomers are stable at ambient temperature and capable of being isolated.
The title compound is prepared analogously to Example 2 from 5-(chloroacetyl)-5,10-dihydro-11H-dibenzo[b,e][1,4]diazepin-11-one and D,L-2-[(4-methyl-1-piperazinyl)methyl]-piperidine to give colorless crystals, mp. 200°-202° C. (acetonitrile/activated charcoal). According to thin layer chromatography (Polygram® SIL G/UV254; eluant: dichloromethane/ethyl acetate/cyclohexane/methanol/conc. ammonia 3.5:1.5:0.46: 0.46:0.06; RF approx. 0.25) it is a mixture of isomers in a quantity ratio of approximately 1:1. Preparative separation is carried out by the following method:
(a) By liquid chromatography (HPLC):
Mobile Phase: Methylene chloride/cyclohexane/methanol/conc. ammonia (200:210:40:0.5 v/v);
In each case, a solution (100 μl) of the diastereoisomer mixture (15.2 mg) is injected into the mobile phase (1 ml) and thus placing the substance (1.5 mg) on the column.
(b) By liquid chromatography on a Jobin-Yvon chromatospac Prep using Li Chroprep Si 60, 25-40 μm (Merck-Darmstadt, Art. 9390) under a pressure of 10 bar.

[4] = tested on: heart rate; assay: Heart rate increasing activity (tachycardia) in the conscious dog; format: in vivo; conditions: Canis lupus familiaris, iv; dose increasing heart rate by 50 beats per minute; conscious dogs; read-out: Tachycardia (dog) ED50
Description: (§4) The methods used have the objective of confirming the selectivity of the antimuscarinic acitivity. Those substances which are selected on the basis of "in vitro" investigations are tested for:
1. tachycardiac effect in conscious dogs;
1. Heart rate increasing activity in the conscious dogs
The substances are injected intravenously and the heart rate is measured with the aid of a tachygraph. After a control period, increasing doses of the compound are administered in order to increase the heart rate. The next dose is injected when the effect of the preceding dose is no longer visible. […] Each substance is tested on 3 to 5 dogs.

[5] = tested on: gastric acid secretion; assay: Inhibition of gastric acid secretion in pylorus-ligated rats (Shay rat); format: in vivo, male Wistar rats; conditions: iv, 2 h, i.v., 5 min before pylorus ligature, volume or acid output reduced by 50%
Description: as §4
2. inhibitory effect on gastric acid secretion in pylorous-ligated rats; and
2. Inhibition of secretion in rats
Increasing doses of the substance are injected intravenously into male Wistar rats (10 rats per group) 5 minutes before the ligature of the pylorus. The rats are killed 2 hours later and both the volume of gastric acid and also the "acid output" are determined by titration. The dosage of substance which reduces either the volume or the acid output by 50% is determined.

Compound | IC50 [1] | IC50 [2] | also measured
CN(CC1CCCCN1CC(=O)N1c2ccccc2C(=O)Nc2cccnc21)[C@H]1CC[C@H](O)CC1 (relative stereo) [K] | 70 nM | 1100 nM | 
CN(C)CC1CCCCN1CC(=O)N1c2ccccc2C(=O)Nc2cccnc21 (centres unmarked) [D] | 150 nM and 130 nM | 1500 nM | 
CN(CC1CCCCN1CC(=O)N1c2ccccc2NC(=O)c2ccccc21)C1CCCCC1 (centres unmarked) [N] | 13 nM | 50 nM | 
CN1CCN(CC2CCCCN2CC(=O)N2c3ccccc3NC(=O)c3ccccc32)CC1 (single isomer, unassigned) [Isomer II, 5,10-Dihydro-5-[[2-[(4-methyl-1-piperazinyl)methyl]-1-piperidinyl]-acetyl]-11H-dibenzo[b,e][1,4]diazepin-11-one] |  |  | stability in crystalline form [3]: completely stable
CN1C2CCC1CC(OC(=O)C(CO)c1ccccc1)C2 (centres unmarked) [C] |  |  | ED (increase of 50 beats per minute) [4]: 0.0077 mg/kg
CCN(CC)CC1CCCN(CC(=O)N2c3ccccc3NC(=O)c3ccccc32)C1 (centres unmarked) [M] | 35 nM | 100 nM | 
CN1CCCC1C1CCCN(CC(=O)N2c3ccccc3NC(=O)c3ccccc32)C1 (centres unmarked) [P] | 17 nM | 120 nM | 
CCCCN(C)CC1CCCCN1CC(=O)N1c2ccccc2NC(=O)c2ccccc21 (centres unmarked) [Q] | 18 nM | 100 nM | 
CCN(CC)CC1CCCCN1CC(=O)N1c2ccccc2NC(=O)c2ccccc21 (centres unmarked) [F] | 150 nM and 100 nM | 750 nM and 1000 nM | 
CN(CC1CCCN(CC(=O)N2c3ccccc3NC(=O)c3ccccc32)C1)C1CCCCC1 (centres unmarked) [O] | 2.8 nM | 20 nM | 
CN(C)CCC1CCCCN1CC(=O)N1c2ccccc2C(=O)Nc2cccnc21 (centres unmarked) [E] | 170 nM | 1300 nM | 
CN1CCN(CC(=O)N2c3ccccc3C(=O)Nc3cccnc32)CC1 [B] |  |  | ED50 [5]: 0.4 mg/kg; ED (increase of 50 beats per minute) [4]: 0.468 mg/kg
CCN(CC)C[C@@H]1CCCN1CC(=O)N1c2ccccc2C(=O)Nc2cccnc21 [H] | 400 nM | 4500 nM | 
CCN(CC)CC1CCCCN1CC(=O)N1c2ccccc2NC(=O)c2cscc21 (centres unmarked) [G] | 220 nM | 2200 nM | 
CN(CC1CCCN(CC(=O)N2c3ccccc3C(=O)Nc3cccnc32)C1)C1CCCCC1 (centres unmarked) [L] | 19 nM | 85 nM | 
CCN(CC)C[C@@H]1CCCN1CC(=O)N1c2ccccc2NC(=O)c2ccccc21 [I] | 90 nM | 800 nM | 
CCN(CC)CC1CCCCN1CC(=O)N1c2ccccc2C(=O)Nc2cccnc21 (racemic) [A] | 140 nM and 150 nM |  | ED50 [5]: > 10 mg/kg; ED (increase of 50 beats per minute) [4]: 0.103 mg/kg
CN1CCN(CC2CCCCN2CC(=O)N2c3ccccc3NC(=O)c3ccccc32)CC1 (single isomer, unassigned) [Isomer I, 5,10-Dihydro-5-[[2-[(4-methyl-1-piperazinyl)methyl]-1-piperidinyl]-acetyl]-11H-dibenzo[b,e][1,4]diazepin-11-one] |  |  | stability in crystalline form [3]: completely stable; half-life ([3]; hplc mobile phase solution, ambient temperature, mobile phase methylene chloride/cyclohexane/methanol/conc. ammonia, read-out: reverts into the original mixture, t1/2): < 216 h
